# Test results published in patent publication US20190124918A1, “BIOFILM FORMATION INHIBITOR AND BIOFILM FORMATION INHIBITING COMPOSITION” (KAO CORPORATION, priority 2016, published 2019).
# Experiments:
# [1] = system: cooling water taken from a water cooling tower; test: Aqueous system model (annular reactor): amount of biofilm formed on test pieces (OD570); type: cell-based; settings: Test Example 4; 15 ppm in cooling water, 30° C.; solvent control finally beyond 0.7
# Experimental: Biofilm formation inhibitory activity of p-toluquinone (Tokyo Kasei) was evaluated by an aqueous system model using an annular reactor (Art Science Co., Ltd.) having a 100 mL-volume culture tank. In the culture tank of the annular reactor, a cylindrical rotating body rotating at a speed of 160 rounds per minute was installed. To the rotating body, 12 test pieces were attached in advance. These test pieces were taken out at predetermined time intervals and biofilm formed on the test pieces was quantified. From a water cooling tower provided on a building rooftop and actually used, cooling water was taken and supplied to the annular reactor culture vessel (maintained at 30° C.) at a flow rate of 10 mL per minute; at the same time, an ethanol solution (15 g/L) of p-toluquinone was separately supplied to the annular reactor culture vessel by a syringe pump YSP-201 (manufactured by YMC) at a flow rate of 10 μL per minute (p-toluquinone concentration in cooling water in the culture tank was 15 ppm). The test pieces (n=2) taken out from the culture tank at predetermined time intervals were stained with 0.1% crystal violet, thoroughly washed twice with physiological saline and recovered in ethanol (15 mL). The absorbance (OD570) was measured to obtain the amount of the biofilm formed. […] Thereafter, the number of bacteria cells was measured. […]
# [2] = system: Pseudomonas PAO1 strain (ATCC 15692); test: Growth of test microbe (turbidity OD600), 96-well microplate culture; type: cell-based
# Summary of the method: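 P. aeruginosa PAO1 diluted in Mueller Hinton Broth, exposed to test compound (ethanol stock evaporated onto DMSO in wells) and grown static at 30° C for 24 h; growth read as OD600. Growth inhibition % = (1 − compound OD600/ethanol-control OD600) × 100.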
smiles,measurement,setting,value
"CC1=CC(=O)C=CC1=O [Compound a, p-Toluquinone]",amount of the biofilm formed (OD570),[1],≤ 0.2
same,Growth OD600,"[2]; final concentration 7 ppm, EtOH control 0.5913",0.645
same,Growth inhibition (%),[2]; final concentration 17 ppm,14.2%
same,Growth OD600,"[2]; final concentration 20 ppm, EtOH control 0.6346",0.5907
same,Growth inhibition (%),[2]; final concentration 33 ppm,15.4%
same,Growth OD600,"[2]; final concentration 33 ppm, EtOH control 0.668",0.6284
same,Growth inhibition (%),[2]; final concentration 66 ppm,— (No growth inhibition or no BF inhibition)
same,Growth OD600,"[2]; final concentration 67 ppm, EtOH control 0.628",0.5489
same,Growth inhibition (%),[2]; final concentration 99 ppm,— (No growth inhibition or no BF inhibition)
same,Growth inhibition (%),[2]; final concentration 116 ppm,1.8%
same,Growth inhibition (%),[2]; final concentration 132 ppm,1.2%
same,Growth OD600,"[2]; final concentration 200 ppm, EtOH control 0.6045",0.3857
same,Growth OD600,"[2]; final concentration 333 ppm, EtOH control 0.6088",0.3334
same,microbial growth (in words),[2]; high concentration range of 200 ppm or more,inhibited
